Assay results published in BigSolDB 2.1.

N[C@@H](Cc1ccccc1)C(=O)O
solubility (mole fraction)
Details | 283.15 K | 288.15 K | 293.15 K | 298.15 K | 303.15 K | 308.15 K | 313.15 K | 318.15 K | 323.15 K | 328.15 K
in 1,4-dioxane | – | 1.86e-05 | 2.37e-05 | 3.09e-05 | 3.5e-05 | 3.9e-05 | 4.53e-05 | 5.92e-05 | 8.28e-05 | 0.000118
in acetone | 8.09e-05 | 0.000104 | 0.000131 | 0.000153 | 0.000176 | 0.000226 | 0.000293 | 0.00033 | 0.000375 | –
in acetonitrile | 7.9e-06 | 9.3e-06 | 1.12e-05 | 1.55e-05 | 1.8e-05 | 2.4e-05 | 3.67e-05 | 4.72e-05 | 5.69e-05 | –
in ethanol | 0.000125 | 0.000136 | 0.000151 | 0.000165 | 0.000177 | 0.000191 | 0.000208 | 0.000222 | 0.000231 | –
in ethyl acetate | 1.33e-05 | 1.49e-05 | 1.95e-05 | 2.06e-05 | 2.37e-05 | 3.38e-05 | 5.38e-05 | 9.29e-05 | 0.000194 | –
in isobutanol | 7.49e-05 | 7.77e-05 | 9.15e-05 | 0.000124 | 0.000158 | 0.000187 | 0.000224 | 0.000278 | 0.000323 | –
in isopropanol | 4.14e-05 | 5.16e-05 | 6.41e-05 | 7.29e-05 | 9.54e-05 | 0.00011 | 0.000122 | 0.00015 | 0.000178 | –
in methanol | 0.000742 | 0.000807 | 0.000866 | 0.000937 | 0.000996 | 0.00105 | 0.00112 | 0.00119 | 0.00126 | –
in methyl acetate | 4.3e-06 | 8.5e-06 | 1e-05 | 1.49e-05 | 1.93e-05 | 3.27e-05 | 4.41e-05 | 5.46e-05 | 6.4e-05 | –
in n-butanol | 5.9e-06 | 8.4e-06 | 9.8e-06 | 2.2e-05 | 3.48e-05 | 4.72e-05 | 5.85e-05 | 8.5e-05 | 0.000104 | –
in n-propanol | 2.83e-05 | 2.99e-05 | 3.34e-05 | 4.63e-05 | 5.58e-05 | 6.44e-05 | 8.96e-05 | 0.000141 | 0.000187 | –
in water | 0.00274 | 0.00289 | 0.00307 | 0.00321 | 0.00342 | 0.0036 | 0.00379 | 0.00404 | 0.00433 | –
